Measured values taken from patent publication US20220055989A1, “CONDENSED PYRROLES AS NOVEL BROMODOMAIN INHIBITORS” (ALBERT LUDWING UNIVERSITÄT FREIBURG, priority 2018, published 2022).

Experiments:
BAZ2B = target: T1, BAZ2B (Homo sapiens, UniProt Q9UIF8); assay: Bromodomain assay % Ctrl determination BAZ2B; conditions: lower numbers indicate a stronger binding
T1 construct: T7 phage strains displaying bromodomains were grown in parallel; made in house; host or cells: T7 phage grown in an E. coli host derived from the BL21 strain
Method: (§1) Compounds that bind the bromodomain prevent its binding to the immobilized ligand thus reducing the amount of protein captured. […] Hits are identified by measuring the amount of bromodomain captured in test versus control samples. Bromodomain assays for % Ctrl determination: T7 phage strains displaying bromodomains were grown in parallel in 24-well blocks in an E. coli host derived from the BL21 strain. E. coli were grown to log-phase and infected with T7 phage from a frozen stock (multiplicity of infection=0.4) and incubated with shaking at 32° C. until lysis (90-150 minutes). The lysates were centrifuged (5,000×g) and filtered (0.2 μm) to remove cell debris. […] The liganded beads were blocked with excess biotin and washed with blocking buffer (SeaBlock (Pierce), 1% BSA, 0.05% Tween 20, 1 mM DTT) to remove unbound ligand and to reduce non-specific phage binding. […] Test compounds were prepared as 1000× stocks in 100% DMSO and subsequently diluted 1:25 in monoethylene glycol (MEG). The compounds were then diluted directly into the assays such that the final concentrations of DMSO and MEG were 0.1% and 2.4%, respectively. All reactions were performed in polypropylene 384-well plates in a final volume of 0.02 ml. […] The bromodomain concentration in the eluates was measured by qPCR. […]

BRD4(2) = target: T2, BRD4(2) (Homo sapiens, UniProt O60885); assay: Bromodomain assay % Ctrl determination BRD4(2); conditions: lower numbers indicate a stronger binding
T2 construct: T7 phage strains displaying bromodomains were grown; host or cells: T7 phage in E. coli derived from BL21
Method: as §1

BRD7 = target: T3, BRD7 (Homo sapiens, UniProt Q9NPI1); assay: Bromodomain assay % Ctrl determination BRD7; conditions: lower numbers indicate a stronger binding
T3 construct: T7 phage strains displaying bromodomains were grown; host or cells: T7 phage in E. coli derived from BL21
T3 sequence (Q9NPI1 131-235 limits assumed): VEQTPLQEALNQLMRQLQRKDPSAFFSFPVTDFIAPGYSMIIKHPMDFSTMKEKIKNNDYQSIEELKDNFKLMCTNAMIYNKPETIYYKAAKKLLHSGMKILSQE
Method: as §1

BRDT(1) = target: T4, BRDT(1) (Homo sapiens, UniProt Q58F21); assay: Bromodomain assay % Ctrl determination BRDT(1); conditions: lower numbers indicate a stronger binding
T4 construct: T7 phage strains displaying bromodomains were grown; host or cells: T7 phage in E. coli derived from BL21
Method: as §1

GCN5L2 = target: T5, GCN5L2 (Homo sapiens, UniProt Q92830); assay: Bromodomain assay % Ctrl determination GCN5L2; conditions: lower numbers indicate a stronger binding
T5 construct: T7 phage strains displaying bromodomains were grown in parallel; host or cells: T7 phage grown in E. coli host derived from BL21
Method: as §1

PCAF = target: T6, PCAF (Homo sapiens, UniProt Q92831); assay: Bromodomain assay % Ctrl determination PCAF; conditions: lower numbers indicate a stronger binding
T6 construct: T7 phage strains displaying bromodomains were grown in parallel; host or cells: T7 phage grown in E. coli host derived from BL21
Method: as §1

TAF1(2) = target: T7, TAF1(2) (Homo sapiens, UniProt P21675); assay: Bromodomain assay % Ctrl determination TAF1(2); conditions: lower numbers indicate a stronger binding
T7 construct: FALZ, PBRM1-BD2, BPRM1-BDS, TAF1-BD2, TAF1L-BD2; host or cells: T7 phage grown in E. coli host derived from BL21
Method: as §1

TRIM33(PHD, Bromo) = assay: Bromodomain assay % Ctrl determination TRIM33(PHD, Bromo); conditions: lower numbers indicate a stronger binding
Method: as §1

WDR9(2) = target: T8, WDR9(2) (Homo sapiens, UniProt Q9NSI6); assay: Bromodomain assay % Ctrl determination WDR9(2); conditions: lower numbers indicate a stronger binding
T8 construct: T7 phage strains displaying bromodomains were grown in parallel; host or cells: T7 phage grown in E. coli host derived from BL21
Method: as §1

BAZ2A = target: T9, BAZ2A (Homo sapiens, UniProt Q9UIF9); assay: BROMOscan Kd determination BAZ2A; format: binding
T9 construct: T7 phage strains displaying bromodomains were grown in parallel; made in house; host or cells: T7 phage grown in an E. coli host derived from the BL21 strain
Method: (§2) Bromodomain profiling was carried out on the basis of BROMOscan™. This platform accounted for the indirect determination of the dissociation constants between 19 bromodomains and the compound of formula (13), by binding competition against a reference immobilized ligand. Compounds that bind the bromodomain prevent its binding to the immobilized ligand thus reducing the amount of protein captured. […] Hits are identified by measuring the amount of bromodomain captured in test versus control samples. Bromodomain assays for Kd determination: T7 phage strains displaying bromodomains were grown in parallel in 24-well blocks in an E. coli host derived from the BL21 strain. E. coli were grown to log-phase and infected with T7 phage from a frozen stock (multiplicity of infection=0.4) and incubated with shaking at 32° C. until lysis (90-150 minutes). The lysates were centrifuged (5,000×g) and filtered (0.2 μm) to remove cell debris. […] Kds were determined using an 11-point 3-fold compound dilution series with one DMSO control point. […] The bromodomain concentration in the eluates was measured by qPCR. […] Most Kds were determined using a compound top concentration=10,000 nM. […] Binding Constants (Kds): Binding constants (Kds) were calculated with a standard dose-response curve using the Hill equation: The Hill Slope was set to −1. […]

BRD1 = target: T10, BRD1 (Homo sapiens, UniProt O95696); assay: BROMOscan Kd determination BRD1; format: binding
T10 construct: T7 phage strains displaying bromodomains were grown in parallel; made in house; host or cells: T7 phage grown in an E. coli host derived from the BL21 strain
Method: as §2

BRD2(1, 2) = target: T11, BRD2(1, 2) (Homo sapiens, UniProt P25440); assay: BROMOscan Kd determination BRD2(1, 2); format: binding
T11 construct: T7 phage strains displaying bromodomains were grown in parallel; made in house; host or cells: T7 phage grown in an E. coli host derived from the BL21 strain
Method: as §2

PBRM1(5) = target: T12, PBRM1(5) (Homo sapiens, UniProt Q86U86); assay: BROMOscan Kd determination PBRM1(5); format: binding
T12 construct: T7 phage strains displaying bromodomains were grown in parallel; host or cells: T7 phage grown in E. coli host derived from BL21
Method: as §2

SMARCA2 = target: T13, SMARCA2 (Homo sapiens, UniProt P51531); assay: BROMOscan Kd determination SMARCA2; format: binding
T13 construct: T7 phage strains displaying bromodomains were grown in parallel; host or cells: T7 phage grown in E. coli host derived from BL21
Method: as §2

T12 sequence (Q86U86 653-763 limits assumed): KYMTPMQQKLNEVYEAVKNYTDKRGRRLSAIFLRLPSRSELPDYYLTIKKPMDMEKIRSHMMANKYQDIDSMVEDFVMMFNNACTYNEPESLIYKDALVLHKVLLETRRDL
T8 sequence (Q9NSI6 1313-1418 limits assumed): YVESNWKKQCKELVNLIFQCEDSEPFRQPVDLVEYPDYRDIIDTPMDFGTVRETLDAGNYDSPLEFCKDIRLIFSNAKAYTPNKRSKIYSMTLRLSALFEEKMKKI
T10 sequence (O95696 562-666 limits assumed): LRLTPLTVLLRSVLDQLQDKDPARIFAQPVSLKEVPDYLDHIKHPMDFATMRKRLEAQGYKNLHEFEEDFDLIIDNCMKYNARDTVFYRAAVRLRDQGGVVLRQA
T5 sequence (Q92830 728-832 limits assumed): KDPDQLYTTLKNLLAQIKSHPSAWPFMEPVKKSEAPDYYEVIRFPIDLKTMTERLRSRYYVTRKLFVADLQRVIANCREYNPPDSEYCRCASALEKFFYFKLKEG
T11 sequence (P25440 71-455 limits assumed): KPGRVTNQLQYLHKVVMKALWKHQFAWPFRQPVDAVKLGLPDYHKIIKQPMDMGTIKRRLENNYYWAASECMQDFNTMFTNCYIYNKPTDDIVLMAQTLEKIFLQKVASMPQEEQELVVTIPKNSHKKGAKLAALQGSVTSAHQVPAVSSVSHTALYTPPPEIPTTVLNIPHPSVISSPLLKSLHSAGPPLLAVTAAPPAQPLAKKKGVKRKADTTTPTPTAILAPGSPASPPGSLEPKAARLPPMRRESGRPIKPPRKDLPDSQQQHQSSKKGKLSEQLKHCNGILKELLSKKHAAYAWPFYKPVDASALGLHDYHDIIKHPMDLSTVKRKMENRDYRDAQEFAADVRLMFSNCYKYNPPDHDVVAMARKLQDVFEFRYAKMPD
T7 sequence (P21675 1519-1628 limits assumed): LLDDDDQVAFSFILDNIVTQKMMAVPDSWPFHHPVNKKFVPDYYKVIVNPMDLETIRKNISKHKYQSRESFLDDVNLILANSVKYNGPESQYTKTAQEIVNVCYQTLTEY
T13 sequence (P51531 1378-1506 limits assumed): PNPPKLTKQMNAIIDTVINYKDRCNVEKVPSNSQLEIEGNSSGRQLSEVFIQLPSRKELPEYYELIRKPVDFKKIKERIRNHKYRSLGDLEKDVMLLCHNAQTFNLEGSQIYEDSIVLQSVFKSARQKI
T9 sequence (Q9UIF9 1793-1897 limits assumed): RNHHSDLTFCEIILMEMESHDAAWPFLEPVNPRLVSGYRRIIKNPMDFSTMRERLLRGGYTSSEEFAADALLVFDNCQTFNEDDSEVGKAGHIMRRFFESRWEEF
T6 sequence (Q92831 723-827 limits assumed): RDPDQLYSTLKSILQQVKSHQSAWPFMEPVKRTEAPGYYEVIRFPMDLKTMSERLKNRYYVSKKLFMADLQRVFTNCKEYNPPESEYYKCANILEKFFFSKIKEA
T1 sequence (Q9UIF8 2060-2164 limits assumed): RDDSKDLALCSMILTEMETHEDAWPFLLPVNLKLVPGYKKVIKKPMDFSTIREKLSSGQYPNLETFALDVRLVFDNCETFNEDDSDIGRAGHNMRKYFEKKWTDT

Compound	% Ctrl @ 10 000 nM BAZ2B (BAZ2B)	% Ctrl @ 10 000 nM BRD4(2) (BRD4(2))	% Ctrl @ 10 000 nM BRD7 (BRD7)	% Ctrl @ 10 000 nM BRDT(1) (BRDT(1))	% Ctrl @ 10 000 nM GCN5L2 (GCN5L2)	% Ctrl @ 10 000 nM PCAF (PCAF)	% Ctrl @ 10 000 nM TAF1(2) (TAF1(2))	% Ctrl @ 10 000 nM TRIM33(PHD, Bromo) (TRIM33(PHD, Bromo))	% Ctrl @ 10 000 nM WDR9(2) (WDR9(2))	Kd (BAZ2A)	Kd (BRD1)	Kd (BRD2(1, 2))	Kd (PBRM1(5))	Kd (SMARCA2)
COc1ccc(S(=O)(=O)N2CCOCC2)cc1NC(=O)c1[nH]c(C)c2c1CCCCC2=O [Compound 13, N-(2-methoxy-5-(morpholinosulfonyl)phenyl)-3-methyl-4-oxo-2,4,5,6,7,8-hexahydrocyclohepta[c]pyrrole-1-carboxamide]	6.8 % Ctrl	0 % Ctrl	0 % Ctrl	0 % Ctrl	44 % Ctrl	20 % Ctrl	7.4 % Ctrl	60 % Ctrl	81 % Ctrl	–	–	–	–	–
Cc1[nH]c(-c2cc(N)ccc2Cl)c2c1C(=O)CCCC2 [Compound 23]	–	–	–	–	–	–	–	–	–	1.9 µM	3.1 µM	0.084 µM	3.8 µM	> 10 µM
